Reference: ChEMBL document CHEMBL1201862, “PubChem BioAssay data set” (2004)
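Cultured in 96-well plates, cells were exposed to test compound for 48 hours across five concentrations. Abbreviation: GI50, concentration required for 50% inhibition of growth.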 Calls of active or inactive are those of the source. No stated cut-off is given here; in the data, active = GI50 up to about 1.1 µM and inactive = higher.

Assays:
Test in all cases: NCI anticancer screen, dose series, 48 h
COLO 205 = test system: COLO 205
Malme-3M = test system: Malme-3M
RPMI-8226 = test system: RPMI-8226
SK-MEL-2 = test system: SK-MEL-2
SK-MEL-5 = test system: SK-MEL-5
IGROV-1 = test system: IGROV-1
CCRF-CEM = test system: CCRF-CEM
SNB-78 = test system: SNB-78
HOP-92 = test system: HOP-92
UACC-62 = test system: UACC-62
M14 = test system: M14
RXF 393 = test system: RXF 393
CAKI-1 = test system: CAKI-1
NCI-H23 = test system: NCI-H23
MOLT-4 = test system: MOLT-4
DU-145 = test system: DU-145
BT-549 = test system: BT-549
MDA-N = test system: MDA-N
Hs-578T = test system: Hs-578T
MCF7 = test system: MCF7

| SMILES | GI50 (COLO 205) | GI50 (Malme-3M) | GI50 (RPMI-8226) | GI50 (SK-MEL-2) | GI50 (SK-MEL-5) | GI50 (IGROV-1) | GI50 (CCRF-CEM) | GI50 (SNB-78) | GI50 (HOP-92) | GI50 (UACC-62) | GI50 (M14) | GI50 (RXF 393) | GI50 (CAKI-1) | GI50 (NCI-H23) | GI50 (MOLT-4) | GI50 (DU-145) | GI50 (BT-549) | GI50 (MDA-N) | GI50 (Hs-578T) | GI50 (MCF7) |
| --- | --- | --- | --- | --- | --- | --- | --- | --- | --- | --- | --- | --- | --- | --- | --- | --- | --- | --- | --- | --- |
| O=C(Nc1nc2ncn(CCOC(=O)c3ccccc3)c2c(=S)[nH]1)c1ccccc1 | > 100 µM (inactive) | 42.5 µM (inactive) | > 100 µM (inactive) | 41.6 µM (inactive) | > 100 µM (inactive) | > 100 µM (inactive) | > 100 µM (inactive) | 44.1 µM (inactive) | 42.7 µM (inactive) | 56.2 µM (inactive) | > 100 µM (inactive) | 18.6 µM (inactive) | > 100 µM (inactive) | – | – | – | – | – | – | – |
| C=CCCn1nc(-c2ccccc2)oc1=O | > 100 µM (inactive) | > 100 µM (inactive) | – | > 100 µM (inactive) | > 100 µM (inactive) | > 100 µM (inactive) | > 100 µM (inactive) | > 100 µM (inactive) | > 100 µM (inactive) | > 100 µM (inactive) | > 100 µM (inactive) | > 100 µM (inactive) | > 100 µM (inactive) | > 100 µM (inactive) | > 100 µM (inactive) | – | – | – | – | – |
| CCCc1cc(-c2ccc(-c3cc(CCC)c(C=O)[nH]3)s2)[nH]c1C=O | 4.83 µM (inactive) | 21.2 µM (inactive) | > 100 µM (inactive) | 22 µM (inactive) | 29.4 µM (inactive) | > 100 µM (inactive) | 2.44 µM (inactive) | > 100 µM (inactive) | 27.5 µM (inactive) | > 32.6 µM (inactive) | 7.08 µM (inactive) | 30.1 µM (inactive) | > 100 µM (inactive) | > 37.1 µM (inactive) | 2.9 µM (inactive) | > 100 µM (inactive) | 25.9 µM (inactive) | 4.34 µM (inactive) | 41.2 µM (inactive) | 64.3 µM (inactive) |
| Cc1nc2c(nc1C)C(=O)C1=C(C2=O)C2C=CC1CC2 | 14.9 µM (inactive) | 11.8 µM (inactive) | 2.17 µM (inactive) | 13.2 µM (inactive) | 2.05 µM (inactive) | 2.63 µM (inactive) | 1.1 µM (active) | 3.21 µM (inactive) | 1.97 µM (inactive) | 2.86 µM (inactive) | 12.8 µM (inactive) | 6.79 µM (inactive) | 18.3 µM (inactive) | 4.04 µM (inactive) | 1.32 µM (inactive) | – | – | – | – | – |
| CN=[S+]([O-])(c1ccccc1)c1ccccc1 | > 100 µM (inactive) | > 100 µM (inactive) | > 100 µM (inactive) | > 100 µM (inactive) | > 100 µM (inactive) | > 100 µM (inactive) | > 100 µM (inactive) | > 100 µM (inactive) | > 100 µM (inactive) | > 100 µM (inactive) | > 100 µM (inactive) | > 100 µM (inactive) | > 100 µM (inactive) | > 100 µM (inactive) | > 100 µM (inactive) | – | – | – | – | – |
| NC(=S)N/N=C(\CCC(=O)Nc1ccccc1[N+](=O)[O-])CC(=O)c1ccco1 | > 100 µM (inactive) | > 100 µM (inactive) | > 100 µM (inactive) | > 100 µM (inactive) | > 100 µM (inactive) | > 100 µM (inactive) | > 100 µM (inactive) | > 100 µM (inactive) | > 100 µM (inactive) | > 100 µM (inactive) | > 100 µM (inactive) | > 100 µM (inactive) | > 100 µM (inactive) | > 100 µM (inactive) | > 100 µM (inactive) | – | – | – | – | – |
| CN(C)CCNC(=O)c1cccc2cc3c(Cl)cccc3nc12 | 1.01 µM (active) | 0.865 µM (active) | 1.64 µM (inactive) | 1.75 µM (inactive) | 1.71 µM (inactive) | 1.2 µM (inactive) | – | 2.11 µM (inactive) | 2.07 µM (inactive) | 1.69 µM (inactive) | 2.12 µM (inactive) | 1.7 µM (inactive) | 3.63 µM (inactive) | 1.38 µM (inactive) | 0.22 µM (active) | – | – | – | – | – |
| Nc1ccc(C2=N/C(=C\c3cccc(N)c3)C(=O)O2)cc1 | > 100 µM (inactive) | > 100 µM (inactive) | – | > 100 µM (inactive) | > 100 µM (inactive) | > 100 µM (inactive) | 67.3 µM (inactive) | > 100 µM (inactive) | > 100 µM (inactive) | > 100 µM (inactive) | > 100 µM (inactive) | > 100 µM (inactive) | > 100 µM (inactive) | > 100 µM (inactive) | > 100 µM (inactive) | – | – | – | – | – |
| O=C(CCC(=O)N/N=C/c1ccccc1O)N/N=C/c1ccccc1O | > 100 µM (inactive) | > 100 µM (inactive) | > 100 µM (inactive) | 17.5 µM (inactive) | > 100 µM (inactive) | 33.9 µM (inactive) | – | 51.3 µM (inactive) | 27.9 µM (inactive) | 41.8 µM (inactive) | – | 16 µM (inactive) | > 100 µM (inactive) | 94.6 µM (inactive) | > 100 µM (inactive) | – | – | – | – | – |
| N#C/C(=C\c1ccc(O)cc1)C(N)=O | > 100 µM (inactive) | > 100 µM (inactive) | > 100 µM (inactive) | > 100 µM (inactive) | > 100 µM (inactive) | > 100 µM (inactive) | > 100 µM (inactive) | > 100 µM (inactive) | > 100 µM (inactive) | > 100 µM (inactive) | > 100 µM (inactive) | 77.3 µM (inactive) | > 100 µM (inactive) | > 100 µM (inactive) | > 100 µM (inactive) | – | – | – | – | > 100 µM (inactive) |
| O=C(CC(=O)C1=CNc2ccccc2S1)C(=O)Nc1ccc(Cl)cc1 | > 50 µM (inactive) | > 50 µM (inactive) | > 50 µM (inactive) | > 50 µM (inactive) | > 50 µM (inactive) | > 50 µM (inactive) | > 50 µM (inactive) | > 50 µM (inactive) | > 50 µM (inactive) | > 50 µM (inactive) | > 50 µM (inactive) | > 50 µM (inactive) | > 50 µM (inactive) | > 50 µM (inactive) | > 50 µM (inactive) | – | – | – | – | – |
| O=S1(=O)NN=C(NCc2ccc(F)cc2)c2ccccc21 | > 76.4 µM (inactive) | > 89.3 µM (inactive) | > 40.7 µM (inactive) | > 100 µM (inactive) | > 68.2 µM (inactive) | > 72.4 µM (inactive) | 23.7 µM (inactive) | 55.6 µM (inactive) | 24.7 µM (inactive) | 34.7 µM (inactive) | > 50.9 µM (inactive) | 34.9 µM (inactive) | > 89.5 µM (inactive) | > 100 µM (inactive) | > 36 µM (inactive) | > 100 µM (inactive) | 67.5 µM (inactive) | > 100 µM (inactive) | 17.5 µM (inactive) | > 100 µM (inactive) |
| CCCCCCCCCCCCCCCCc1c(O)nc(NC#N)nc1C(=O)OC | > 25 µM (inactive) | > 25 µM (inactive) | > 25 µM (inactive) | > 25 µM (inactive) | – | – | > 25 µM (inactive) | > 25 µM (inactive) | > 25 µM (inactive) | – | > 25 µM (inactive) | > 25 µM (inactive) | – | > 25 µM (inactive) | > 25 µM (inactive) | – | – | – | – | – |
| Cc1cn2c(=O)c3ccccc3nc2s1 | > 100 µM (inactive) | > 100 µM (inactive) | > 100 µM (inactive) | > 100 µM (inactive) | > 100 µM (inactive) | > 100 µM (inactive) | > 100 µM (inactive) | > 100 µM (inactive) | > 100 µM (inactive) | > 100 µM (inactive) | > 100 µM (inactive) | > 100 µM (inactive) | > 100 µM (inactive) | > 100 µM (inactive) | > 100 µM (inactive) | – | – | – | – | – |
| NC1=NC2=c3ccccc3=C(c3cnccn3)C2(c2cnccn2)c2ccccc21 (stereo not drawn) | 32.4 µM (inactive) | 49.9 µM (inactive) | 58.7 µM (inactive) | > 100 µM (inactive) | 34 µM (inactive) | > 100 µM (inactive) | 89.7 µM (inactive) | 49.1 µM (inactive) | 37.9 µM (inactive) | > 100 µM (inactive) | > 100 µM (inactive) | > 100 µM (inactive) | 42.8 µM (inactive) | 91.4 µM (inactive) | 33.6 µM (inactive) | – | – | – | – | – |
| CN(c1ccccc1)c1c(Cl)c(=O)oc2c1ccc1occc12 | – | > 100 µM (inactive) | 86.9 µM (inactive) | > 100 µM (inactive) | > 100 µM (inactive) | – | 64.7 µM (inactive) | > 100 µM (inactive) | 67.3 µM (inactive) | 40.6 µM (inactive) | > 100 µM (inactive) | > 100 µM (inactive) | 53.3 µM (inactive) | > 100 µM (inactive) | 55.2 µM (inactive) | – | – | – | – | – |
